Source: US20070031889A1, “Method for rapidly detecting quinolone-resistant Salmonella ssp. and the probes and primers utilized therein” (Bureau of Food and Drug Analysis, Department of Health, …, priority 2004, published 2007)
In brackets after ≈: the same amount, converted by molar mass. Several values for one entry are separate records, joined by “and”; a condition that tells them apart may be missing. Equal entries are not always repeated. Where two headings read alike, the source gives them in different places. {LC640} = LightCycler Red 640 dye label (LCRED640); {FL} = fluorescein label (FL); {P} = phosphate

How the values were obtained:
Salmonella strains = assay: Minimum inhibitory concentration (MIC) of quinolone antibacterials by E-test strips; format: cell-based, Salmonella spp.; settings: for MIC: Salmonella
Description: The minimum inhibitory concentration was deterrnined by the E-test strips of quinolone antibacterials (AB BIODISC North America Inc., Solna, Sweden). The bacterial strain to be tested was streak plated on xylose lysin desoxycholate agar (XLD) (Merck kGaA, Darmstadt, Germany). After the purity of said strain was verified, the strain was grown on tryptic soy agar (TSA) medium (Merck kGaA, Darrnstadt, Germany) at 35-37° C. for 16-18 hours and then suspended in sterile water. The bacterial concentration was adjusted to 80% of turbidity (corresponding to 0.5 MacFarland turbidity standard, and the bacterial content is approximately […]) using Vitek Special DR 100 Colorimeter (HACH Company, Colorado, USA). Then, 0.1 ml of the bacterial aliquot was placed on the prepared Mueller-Hinton (M-H) agar medium (having the diameter of 9 cm and the thickness of 4.0±0.5 mm) (Merck kGaA, Darmstadt, Germany) and the aliquot was spread evenly on the medium by a sterilized glass rod. The medium plate stood still for 10 to 15 minutes to ensure that the bacterial aliquot completely penetrated into the medium. Thereafter, a sterilized tweezer was used to clip the E region of the E-test antibacterial test strip which was then placed on the inoculated M-H medium plate. Two E-test trips were placed parallel to each other and symmetrically on each medium plate. Said medium plates were then incubated at 35-37° C. for 16-18 hours. The results were determined based on the standards from National Committee for Clinical Laboratory Standard (NCCLS, 2001), USA. Each antibacterial agent was tested in a duplicate experiment, and E. coli ATCC 25922/CCRC 11509 was used as the control of the tested strains in each experiment.

[1] = test system: single-stranded PCR products of Salmonella gyrA gene; assay: Real-time PCR with melting curve analysis of gyrA4 hybridization probes; format: binding, Salmonella spp.
Description: (§1) The bacterial strain to be tested was streak plated on XLD medium. After the purity of said strain was verified, the strain was grown in TSB broth at 35±1° C. for 18±2 hours. Following refrigerated centrifugation, Wizard® Genomic DNA Purification Kit was used to extract the genomic DNA. One microliter of the DNA extraction solution was added to the reaction mix (containing 0.5 μM primer set, 0.2 μM probe set, 4 mM MgCl2, and 1×LightCycler DNA Master hybridization mix) to a final volume of 20 μl, which was then placed in LightCycler (Roche Applied Science, Mannheim, Germany) for amplification and melting reaction of the hybrid of the PCR product with the hybridization probes.

[2] = test system: single-stranded PCR products of parC gene; assay: Real-time PCR with melting curve analysis of parC238 hybridization probes; format: binding, Salmonella spp.
Description: as §1

[3] = Table 4, gyrA single point mutation strains (52)

O=C(O)c1cn(C2CC2)c2cc(N3CCNCC3)c(F)cc2c1=O [ciprofloxacin]
Susceptibility Cp (Salmonella strains; Mutant strains (75)): S/R | Susceptibility (Salmonella strains; Table 4, Wild type strains): S | Susceptibility (Salmonella strains; [3]): S | Susceptibility Cp (Salmonella strains; Wild type strains (45)): S (S, susceptibility, MICs 0.006-0.38 μg/ml) | Ciprofloxacin susceptibility (Salmonella strains; parC mutant (A238C) strains (23)): Resistant | Ciprofloxacin susceptibility (Salmonella strains; parC wild type strains (97)): Sensitive | Susceptibility (Salmonella strains; {}): S

CCn1cc(C(=O)O)c(=O)c2ccc(C)nc21 [nalidixic acid]
share of the 120 Salmonella strains tested that were resistant (Salmonella strains; 120 strains from animal foods and clinical samples): 62.5% | MIC (Salmonella strains; read-out: MICs, resistant strains (gyrA mutants)): ≥ 256 µg/mL | MIC (Salmonella strains; susceptible strains (wild type), read-out: MICs): 2.5 to 7 µg/mL (≈ 10.8 to 30.1 µM) | Susceptibility (Salmonella strains; Table 4, Wild type strains): S | Susceptibility (Salmonella strains; [3]): R | Susceptibility NA (Salmonella strains; Wild type strains (45)): S (S, susceptibility, MICs 2.5˜7 μg/ml) | Susceptibility (Salmonella strains; {}): R | Susceptibility NA (Salmonella strains; {}): R (R, resistance, MICs ≧ 256 μg/ml)

gyrA4: hybridization probe set of gyrA4-FL (SEQ ID NO: 5) and gyrA4-LC640 (SEQ ID NO: 6) (DNA 1 CGATTCCGCAGTGTATGACACC; DNA 2 CGTTCGTATGGCGCAGCCATTCTCG; DNA 1: DNA, 3' {FL}, backbone not given here; DNA 2: DNA, 5' {LC640}, 3' {P}, backbone not given here; listed as Salmonella sp.)
Tm ± SD (CV %) ([1]; C248A mutant strains): 58.6±0.3 °C and 58.6 ± 0.3 (0.51) ° C. | Tm ± SD (CV %) ([1]; C248T mutant strains): 59.1±0.2 °C and 59.1 ± 0.2 (0.40) ° C. | Tm ± SD (CV %) ([1]; G259A mutant strains): 59.8±0.4 °C and 59.8 ± 0.4 (0.60) ° C. | Tm ± SD (CV %) ([1]; G259T mutant strains): 59.6±0.4 °C and 59.6 ± 0.4 (0.68) ° C. | Tm ± SD (CV %) ([1]; Wild type strains): 63.6±1.0 °C and 63.6 ± 1.0 (1.62) ° C. | Tm ± SD (CV %) ([1]; double point mutation C248T/A260G strains): 54.6±0.2 °C and 54.6 ± 0.2 (0.27) ° C. | Tm ± SD (CV %) ([1]; single point mutation strains (C248A, C248T, G259A, G259T)): 59.2±0.5 °C and 59.2 ± 0.5 (0.89) ° C.

parC238: hybridization probe set of parC238-FL (SEQ ID NO: 7) and parC238-LC640 (SEQ ID NO: 8) (DNA 1 CGACCGCGCCTGCT; DNA 2 GAAGCCATGGTGCTGATGGCG; DNA 1: DNA, 3' {FL}, backbone not given here; DNA 2: DNA, 5' {LC640}, 3' {P}, backbone not given here; listed as Salmonella sp.)
Tm ± SD (CV %) ([2]; parC mutant (A238C) strains): 61.4±0.3 °C | Tm ± SD (CV %) ([2]; parC wild type strains): 47.4±0.5 °C
